Data: article PMC6120666 (The EMBO Journal, 2018)

Assays:
Experiment in all cases: Drug affinity chromatography with c-ponatinib and LC-MS/MS (ponatinib interactome)
Type in all cases: binding
[1] = target: T1, proteins of U2OS cell lysate (Homo sapiens, UniProt P07355); settings: ANXA2;ANXA2P2, Annexin A2
T1 construct: Proteins enriched by c-ponatinib from U2OS cell lysate; endogenous in cells; host or cells: U2OS cell lysate
In short: (§1)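 U2OS cell lysate in NP-40 lysis buffer (2 mg protein per pulldown) was incubated with amine-derivatized NHS beads for 2 h at 4 °C. Bound proteins were washed, eluted with 100 mM formic acid, reduced, alkylated and trypsin-digested, then identified by nano-UPLC–MS/MS on Orbitrap instruments with a 60 min gradient.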

[2] = target: T2, proteins of U2OS cell lysate (Homo sapiens, UniProt Q9Y2V7); settings: COG6, Conserved oligomeric Golgi complex subunit 6
T2 construct: Proteins enriched by c-ponatinib from U2OS cell lysate; endogenous in cells; host or cells: U2OS cell lysate
In short: as §1

[3] = target: T3, proteins of U2OS cell lysate (Homo sapiens, UniProt P24534); settings: EEF1B2, Elongation factor 1-beta
T3 construct: Proteins enriched by c-ponatinib from U2OS cell lysate; endogenous in cells; host or cells: U2OS cell lysate
T3 sequence (P24534 whole entry): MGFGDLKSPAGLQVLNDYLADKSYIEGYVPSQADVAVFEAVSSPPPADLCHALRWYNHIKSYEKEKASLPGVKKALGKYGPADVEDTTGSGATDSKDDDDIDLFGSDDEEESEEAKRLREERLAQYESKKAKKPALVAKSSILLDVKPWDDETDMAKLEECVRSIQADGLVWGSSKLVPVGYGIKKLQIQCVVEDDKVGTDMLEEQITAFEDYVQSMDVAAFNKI
In short: as §1

[4] = target: T4, proteins of U2OS cell lysate (Homo sapiens, UniProt P56381); settings: ATP5E;ATP5EP2, ATP synthase subunit epsilon, mitochondrial
T4 construct: Proteins enriched by c-ponatinib from U2OS cell lysate; endogenous in cells; host or cells: U2OS cell lysate
T4 sequence (P56381 whole entry): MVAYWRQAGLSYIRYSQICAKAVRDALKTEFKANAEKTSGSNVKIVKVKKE
In short: as §1

[5] = target: T5, proteins of U2OS cell lysate (Homo sapiens, UniProt P48047); settings: ATP5O, ATP synthase subunit O, mitochondrial
T5 construct: Proteins enriched by c-ponatinib from U2OS cell lysate; endogenous in cells; host or cells: U2OS cell lysate
T5 sequence (P48047 24-213): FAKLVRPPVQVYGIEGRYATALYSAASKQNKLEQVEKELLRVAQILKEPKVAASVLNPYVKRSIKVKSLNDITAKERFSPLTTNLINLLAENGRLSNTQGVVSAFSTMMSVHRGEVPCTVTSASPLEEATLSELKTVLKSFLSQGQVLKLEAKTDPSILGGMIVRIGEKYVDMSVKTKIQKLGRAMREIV
In short: as §1

[6] = target: T6, proteins of U2OS cell lysate (Homo sapiens, UniProt P31947); settings: SFN, 14-3-3 protein sigma
T6 construct: Proteins enriched by c-ponatinib from U2OS cell lysate; endogenous in cells; host or cells: U2OS cell lysate
T6 sequence (P31947 whole entry): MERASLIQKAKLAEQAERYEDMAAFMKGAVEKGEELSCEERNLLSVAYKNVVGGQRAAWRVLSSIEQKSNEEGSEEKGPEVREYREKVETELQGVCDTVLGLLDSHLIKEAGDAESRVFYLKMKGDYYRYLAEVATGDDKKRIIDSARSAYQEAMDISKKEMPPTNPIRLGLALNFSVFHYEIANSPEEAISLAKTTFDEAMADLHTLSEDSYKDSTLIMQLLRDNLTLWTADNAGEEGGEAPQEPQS
In short: as §1

[7] = target: T7, proteins of U2OS cell lysate (Homo sapiens, UniProt P29692); settings: EEF1D, Elongation factor 1-delta
T7 construct: Proteins enriched by c-ponatinib from U2OS cell lysate; endogenous in cells; host or cells: U2OS cell lysate
T7 sequence (P29692 whole entry): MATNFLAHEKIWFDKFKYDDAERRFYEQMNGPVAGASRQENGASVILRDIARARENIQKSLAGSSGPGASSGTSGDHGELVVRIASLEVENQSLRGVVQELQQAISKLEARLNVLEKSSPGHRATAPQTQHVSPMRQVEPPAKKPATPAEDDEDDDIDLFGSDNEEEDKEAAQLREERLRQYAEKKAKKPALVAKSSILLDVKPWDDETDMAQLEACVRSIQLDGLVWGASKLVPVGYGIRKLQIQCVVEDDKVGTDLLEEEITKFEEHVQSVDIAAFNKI
In short: as §1

[8] = target: T8, proteins of U2OS cell lysate (Homo sapiens, UniProt P28066); settings: PSMA5, Proteasome subunit alpha type-5
T8 construct: Proteins enriched by c-ponatinib from U2OS cell lysate; endogenous in cells; host or cells: U2OS cell lysate
T8 sequence (P28066 whole entry): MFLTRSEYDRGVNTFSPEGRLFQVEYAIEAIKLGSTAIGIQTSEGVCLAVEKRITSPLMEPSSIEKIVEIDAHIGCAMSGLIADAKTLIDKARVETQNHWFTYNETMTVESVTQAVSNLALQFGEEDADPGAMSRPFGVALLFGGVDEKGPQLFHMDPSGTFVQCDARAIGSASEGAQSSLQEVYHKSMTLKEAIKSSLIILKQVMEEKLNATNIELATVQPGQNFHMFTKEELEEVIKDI
In short: as §1

[9] = target: T9, proteins of U2OS cell lysate (Homo sapiens, UniProt P62249); settings: RPS16, 40S ribosomal protein S16
T9 construct: Proteins enriched by c-ponatinib from U2OS cell lysate; endogenous in cells; host or cells: U2OS cell lysate
In short: as §1

[10] = target: T10, proteins of U2OS cell lysate (Homo sapiens, UniProt O76071); settings: CIAO1, Probable cytosolic iron-sulfur protein assembly protein CIAO1
T10 construct: Proteins enriched by c-ponatinib from U2OS cell lysate; endogenous in cells; host or cells: U2OS cell lysate
T10 sequence (O76071 whole entry): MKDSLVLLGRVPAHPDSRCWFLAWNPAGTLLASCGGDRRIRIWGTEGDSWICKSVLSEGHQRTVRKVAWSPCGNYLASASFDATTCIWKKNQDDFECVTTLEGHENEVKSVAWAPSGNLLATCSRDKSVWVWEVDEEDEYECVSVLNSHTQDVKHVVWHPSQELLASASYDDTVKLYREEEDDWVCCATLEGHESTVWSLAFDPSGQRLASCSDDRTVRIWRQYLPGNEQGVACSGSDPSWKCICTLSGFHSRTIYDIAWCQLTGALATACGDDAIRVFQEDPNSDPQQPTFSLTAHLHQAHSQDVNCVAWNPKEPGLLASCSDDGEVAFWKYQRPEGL
In short: as §1

[11] = target: T11, proteins of U2OS cell lysate (Homo sapiens, UniProt O95347); settings: SMC2, Structural maintenance of chromosomes protein 2
T11 construct: Proteins enriched by c-ponatinib from U2OS cell lysate; endogenous in cells; host or cells: U2OS cell lysate
In short: as §1

[12] = target: T12, proteins of U2OS cell lysate (Homo sapiens, UniProt Q13546); settings: RIPK1, Receptor-interacting serine/threonine-protein kinase 1
T12 construct: Proteins enriched by c-ponatinib from U2OS cell lysate; endogenous in cells; host or cells: U2OS cell lysate
T12 sequence (Q13546 whole entry): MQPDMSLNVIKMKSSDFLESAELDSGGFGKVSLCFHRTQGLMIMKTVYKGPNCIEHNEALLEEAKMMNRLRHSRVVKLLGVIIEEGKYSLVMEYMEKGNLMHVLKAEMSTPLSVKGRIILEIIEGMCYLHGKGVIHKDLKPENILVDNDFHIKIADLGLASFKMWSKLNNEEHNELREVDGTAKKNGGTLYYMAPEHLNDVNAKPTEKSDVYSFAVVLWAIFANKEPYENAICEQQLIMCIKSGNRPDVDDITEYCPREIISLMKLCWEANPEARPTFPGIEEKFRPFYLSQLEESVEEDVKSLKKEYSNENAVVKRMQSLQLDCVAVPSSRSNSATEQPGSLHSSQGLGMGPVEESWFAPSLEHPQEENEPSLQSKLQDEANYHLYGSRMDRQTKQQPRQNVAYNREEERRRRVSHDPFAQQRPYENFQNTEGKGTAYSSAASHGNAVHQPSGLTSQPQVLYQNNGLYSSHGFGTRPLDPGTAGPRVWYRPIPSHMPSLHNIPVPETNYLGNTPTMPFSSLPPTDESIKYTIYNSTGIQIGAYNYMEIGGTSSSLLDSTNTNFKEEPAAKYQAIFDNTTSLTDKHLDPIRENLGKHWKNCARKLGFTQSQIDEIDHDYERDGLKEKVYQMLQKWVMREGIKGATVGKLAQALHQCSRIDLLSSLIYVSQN
In short: as §1

[13] = target: T13, proteins of U2OS cell lysate (Homo sapiens, UniProt P17844); settings: DDX5, Probable ATP-dependent RNA helicase DDX5
T13 construct: Proteins enriched by c-ponatinib from U2OS cell lysate; endogenous in cells; host or cells: U2OS cell lysate
T13 sequence (P17844 whole entry): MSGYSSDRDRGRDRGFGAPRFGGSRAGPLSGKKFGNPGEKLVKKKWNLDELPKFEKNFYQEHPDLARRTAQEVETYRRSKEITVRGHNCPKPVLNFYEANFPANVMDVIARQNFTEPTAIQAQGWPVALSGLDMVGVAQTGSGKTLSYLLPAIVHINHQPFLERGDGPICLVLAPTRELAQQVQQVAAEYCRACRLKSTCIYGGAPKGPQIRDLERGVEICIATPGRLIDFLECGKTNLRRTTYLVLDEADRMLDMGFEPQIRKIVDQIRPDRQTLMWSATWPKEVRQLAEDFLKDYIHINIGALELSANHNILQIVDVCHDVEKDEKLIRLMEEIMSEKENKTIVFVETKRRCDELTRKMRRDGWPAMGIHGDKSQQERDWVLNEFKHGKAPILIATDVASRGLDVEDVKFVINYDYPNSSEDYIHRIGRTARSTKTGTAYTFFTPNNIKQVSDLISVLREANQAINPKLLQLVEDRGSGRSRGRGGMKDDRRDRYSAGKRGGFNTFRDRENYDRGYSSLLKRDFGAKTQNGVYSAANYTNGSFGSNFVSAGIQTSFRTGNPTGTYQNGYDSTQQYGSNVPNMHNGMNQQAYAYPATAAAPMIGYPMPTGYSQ
In short: as §1

[14] = target: T14, proteins of U2OS cell lysate (Homo sapiens, UniProt P62269); settings: RPS18, 40S ribosomal protein S18
T14 construct: Proteins enriched by c-ponatinib from U2OS cell lysate; endogenous in cells; host or cells: U2OS cell lysate
In short: as §1

[15] = target: T15, proteins of U2OS cell lysate (Homo sapiens, UniProt O00410); settings: IPO5, Importin-5
T15 construct: Proteins enriched by c-ponatinib from U2OS cell lysate; endogenous in cells; host or cells: U2OS cell lysate
T15 sequence (O00410 whole entry): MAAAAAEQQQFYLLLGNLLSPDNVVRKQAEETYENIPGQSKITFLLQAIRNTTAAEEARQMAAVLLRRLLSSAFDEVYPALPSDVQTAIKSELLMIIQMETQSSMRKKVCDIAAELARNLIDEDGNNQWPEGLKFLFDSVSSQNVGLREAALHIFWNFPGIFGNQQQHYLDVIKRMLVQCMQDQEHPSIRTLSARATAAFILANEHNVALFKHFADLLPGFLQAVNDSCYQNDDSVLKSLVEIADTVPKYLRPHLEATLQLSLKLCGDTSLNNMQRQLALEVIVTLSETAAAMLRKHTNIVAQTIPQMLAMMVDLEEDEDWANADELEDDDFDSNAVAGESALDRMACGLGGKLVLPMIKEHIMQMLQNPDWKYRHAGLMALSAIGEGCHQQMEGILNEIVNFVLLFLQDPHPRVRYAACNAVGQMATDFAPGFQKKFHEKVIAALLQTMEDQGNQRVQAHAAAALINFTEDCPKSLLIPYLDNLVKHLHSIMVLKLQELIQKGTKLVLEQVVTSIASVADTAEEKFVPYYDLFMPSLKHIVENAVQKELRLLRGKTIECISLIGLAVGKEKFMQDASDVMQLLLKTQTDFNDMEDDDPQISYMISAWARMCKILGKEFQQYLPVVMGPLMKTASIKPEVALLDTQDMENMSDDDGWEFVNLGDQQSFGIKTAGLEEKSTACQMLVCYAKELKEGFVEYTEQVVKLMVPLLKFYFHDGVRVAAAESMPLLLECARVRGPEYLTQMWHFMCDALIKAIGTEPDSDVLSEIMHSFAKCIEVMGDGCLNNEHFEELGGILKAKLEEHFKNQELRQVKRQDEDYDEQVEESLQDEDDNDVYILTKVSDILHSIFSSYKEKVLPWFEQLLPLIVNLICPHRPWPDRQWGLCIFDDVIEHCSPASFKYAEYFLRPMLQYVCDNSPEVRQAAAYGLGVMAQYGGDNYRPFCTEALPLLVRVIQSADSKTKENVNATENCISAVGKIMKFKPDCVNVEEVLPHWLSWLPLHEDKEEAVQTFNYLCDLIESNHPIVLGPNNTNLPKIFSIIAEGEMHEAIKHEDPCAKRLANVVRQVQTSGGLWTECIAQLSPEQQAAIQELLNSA
In short: as §1

[16] = target: T16, proteins of U2OS cell lysate (Homo sapiens, UniProt Q15021); settings: NCAPD2, Condensin complex subunit 1
T16 construct: Proteins enriched by c-ponatinib from U2OS cell lysate; endogenous in cells; host or cells: U2OS cell lysate
In short: as §1

[17] = target: T17, proteins of U2OS cell lysate (Homo sapiens, UniProt P20674); settings: captured protein COX5A, Rank 122
T17 construct: Proteins enriched by c-ponatinib from U2OS cell lysate; endogenous in cells; host or cells: U2OS cell lysate
T17 sequence (P20674 42-150): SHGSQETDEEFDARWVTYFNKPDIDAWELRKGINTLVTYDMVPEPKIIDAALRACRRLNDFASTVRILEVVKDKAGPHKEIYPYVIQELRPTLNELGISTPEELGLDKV
In short: as §1

[18] = target: T18, proteins of U2OS cell lysate (Homo sapiens, UniProt Q9UHX1); settings: captured protein PUF60, Rank 203
T18 construct: Proteins enriched by c-ponatinib from U2OS cell lysate; endogenous in cells; host or cells: U2OS cell lysate
In short: as §1

[19] = target: T19, proteins of U2OS cell lysate (Homo sapiens, UniProt P45880); settings: captured protein VDAC2, Rank 163
T19 construct: Proteins enriched by c-ponatinib from U2OS cell lysate; endogenous in cells; host or cells: U2OS cell lysate
T19 sequence (P45880 whole entry): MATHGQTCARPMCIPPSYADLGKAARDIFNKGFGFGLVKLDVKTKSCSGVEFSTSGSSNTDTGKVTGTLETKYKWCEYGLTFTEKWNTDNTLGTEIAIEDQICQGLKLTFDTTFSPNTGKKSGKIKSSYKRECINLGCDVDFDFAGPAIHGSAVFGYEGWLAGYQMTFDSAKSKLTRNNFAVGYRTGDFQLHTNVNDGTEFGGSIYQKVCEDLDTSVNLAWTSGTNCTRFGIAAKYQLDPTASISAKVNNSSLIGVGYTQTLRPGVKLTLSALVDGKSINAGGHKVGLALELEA
In short: as §1

T1 sequence (P07355 whole entry): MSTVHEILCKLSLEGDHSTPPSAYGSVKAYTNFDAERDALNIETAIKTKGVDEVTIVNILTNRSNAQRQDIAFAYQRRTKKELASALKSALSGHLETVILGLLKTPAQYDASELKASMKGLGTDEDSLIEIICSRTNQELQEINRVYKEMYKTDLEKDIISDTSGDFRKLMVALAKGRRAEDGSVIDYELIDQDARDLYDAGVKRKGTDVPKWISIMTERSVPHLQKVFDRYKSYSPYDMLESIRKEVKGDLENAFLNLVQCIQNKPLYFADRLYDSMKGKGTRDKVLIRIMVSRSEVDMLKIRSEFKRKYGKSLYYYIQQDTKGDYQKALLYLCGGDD

SMILES | Average LFQ PON_WT [1] | Average LFQ PON_WT [2] | Average LFQ PON_WT [3] | Average LFQ PON_WT [4] | Average LFQ PON_WT [5] | Average LFQ PON_WT [6] | Average LFQ PON_WT [7] | Average LFQ PON_WT [8] | Average LFQ PON_WT [9] | Average LFQ PON_WT [10] | Average LFQ PON_WT [11] | Average LFQ PON_WT [12] | Average LFQ PON_WT [13] | Average LFQ PON_WT [14] | Average LFQ PON_WT [15] | Average LFQ PON_WT [16] | Average LFQ intensity [17] | Average LFQ intensity [18] | Average LFQ intensity [19]
Cc1ccc(C(=O)Nc2ccc(CN3CCN(C)CC3)c(C(F)(F)F)c2)cc1C#Cc1cnc2cccnn12 [PON] | 23.7363 | 20.9766 | 23.7043 | 23.9529 | 24.0207 | 23.8618 | 24.6531 | 20.0873 | 20.8259 | 21.1391 | 20.8973 | 25.0833 | 21.2715 | 21.0717 | 21.1425 | 21.331 | – | – | –
Cc1ccc(C(=O)Nc2ccc(CN3CCN(CCCN)CC3)c(C(F)(F)F)c2)cc1C#Cc1cnc2cccnn12 [c-ponatinib, reference compound] | – | – | – | – | – | – | – | – | – | – | – | – | – | – | – | – | 23.049 | 21.804 | 22.3592
